In PMC4356362, “Interaction of the amyloid precursor protein-like protein 1 (APLP1) E2 domain with heparan sulfate involves two distinct binding modes” (Acta Crystallographica Section D: Biological Crystallography, 2015):
Blank lines part the entries; values can stand above or below the molecule they belong to.

How the values were obtained:
APLP1 E2 [1] = biological target: T1, APLP1 E2 (Homo sapiens, UniProt P51693); assay: thermal denaturation (Thermofluor, SYPRO Orange); format: binding; conditions: 10 µM protein, 50 µM oligosaccharide, phosphate pH 5.7, 100 mM NaCl; reference Tm without ligand 43.6 ± 0.2 °C
T1 construct: E2 domain, residues 290-495, secreted from Pichia pastoris (pPICZalpha), N-glycosylated fraction removed; dimeric arrangement in crystal
T1 sequence (P51693 290-495): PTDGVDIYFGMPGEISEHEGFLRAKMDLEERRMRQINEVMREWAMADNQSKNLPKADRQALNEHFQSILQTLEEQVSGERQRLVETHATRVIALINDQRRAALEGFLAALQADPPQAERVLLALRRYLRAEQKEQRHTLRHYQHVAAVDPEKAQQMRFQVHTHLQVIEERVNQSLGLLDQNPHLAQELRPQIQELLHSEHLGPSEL

APLP1 E2 [2] = biological target: T1, APLP1 E2; assay: X-ray co-crystal structure, […] Å; conditions: equimolar 0.5 mM; pH 6.1-6.3; two binding modes: chain a nonreducing end at dimer centre, chain b on one protomer
[3] = biological target: the molecule itself; assay: crystal structure; apo APLP1 E2, orthorhombic crystal form (P212121), 2.6 Å; crystals grown at 20°C in 0.1 M sodium citrate pH 5.6, 0.9 M (NH4)H2PO4, 25% glycerol; two molecules in the asymmetric unit

Tm (APLP1 E2 [1]): 46.9 ± 0.3 °C
Molecule: O=C(O)C1=C[C@H](O)[C@@H](OS(=O)(=O)O)[C@H](O[C@H]2[C@H](O)[C@@H](NS(=O)(=O)O)[C@@H](O[C@H]3[C@H](O)[C@@H](OS(=O)(=O)O)[C@H](O[C@H]4[C@H](O)[C@@H](NS(=O)(=O)O)C(O)O[C@@H]4COS(=O)(=O)O)O[C@H]3C(=O)O)O[C@@H]2COS(=O)(=O)O)O1 (stereo partly drawn) [dp4, heparin tetrasaccharide]

Tm (APLP1 E2 [1]): 53.5 ± 0.5 °C
Molecule: O=C(O)C1=C[C@H](O)[C@@H](OS(=O)(=O)O)[C@H](O[C@H]2[C@H](O)[C@@H](NS(=O)(=O)O)[C@@H](O[C@H]3[C@H](O)[C@@H](OS(=O)(=O)O)[C@H](O[C@H]4[C@H](O)[C@@H](NS(=O)(=O)O)[C@@H](O[C@H]5[C@H](O)[C@@H](OS(=O)(=O)O)[C@H](O[C@H]6[C@H](O)[C@@H](NS(=O)(=O)O)[C@@H](O[C@H]7[C@H](O)[C@@H](OS(=O)(=O)O)[C@H](O[C@H]8[C@H](O)[C@@H](NS(=O)(=O)O)C(O)O[C@@H]8COS(=O)(=O)O)O[C@H]7C(=O)O)O[C@@H]6COS(=O)(=O)O)O[C@H]5C(=O)O)O[C@@H]4COS(=O)(=O)O)O[C@H]3C(=O)O)O[C@@H]2COS(=O)(=O)O)O1 (stereo partly drawn) [dp8, heparin octasaccharide]

Tm (APLP1 E2 [1]): 55.6 ± 0.5 °C
Molecule: O=C(O)C1=C[C@H](O)[C@@H](OS(=O)(=O)O)[C@H](O[C@H]2[C@H](O)[C@@H](NS(=O)(=O)O)[C@@H](O[C@H]3[C@H](O)[C@@H](OS(=O)(=O)O)[C@H](O[C@H]4[C@H](O)[C@@H](NS(=O)(=O)O)[C@@H](O[C@H]5[C@H](O)[C@@H](OS(=O)(=O)O)[C@H](O[C@H]6[C@H](O)[C@@H](NS(=O)(=O)O)[C@@H](O[C@H]7[C@H](O)[C@@H](OS(=O)(=O)O)[C@H](O[C@H]8[C@H](O)[C@@H](NS(=O)(=O)O)[C@@H](O[C@H]9[C@H](O)[C@@H](OS(=O)(=O)O)[C@H](O[C@H]%10[C@H](O)[C@@H](NS(=O)(=O)O)[C@@H](O[C@H]%11[C@H](O)[C@@H](OS(=O)(=O)O)[C@H](O[C@H]%12[C@H](O)[C@@H](NS(=O)(=O)O)C(O)O[C@@H]%12COS(=O)(=O)O)O[C@H]%11C(=O)O)O[C@@H]%10COS(=O)(=O)O)O[C@H]9C(=O)O)O[C@@H]8COS(=O)(=O)O)O[C@H]7C(=O)O)O[C@@H]6COS(=O)(=O)O)O[C@H]5C(=O)O)O[C@@H]4COS(=O)(=O)O)O[C@H]3C(=O)O)O[C@@H]2COS(=O)(=O)O)O1 (stereo partly drawn) [dp12, heparin dodecasaccharide]
X-ray co-crystal structure, 2.5 Å (APLP1 E2 [2]): coordinates of APLP1 E2 in complex with heparin

Molecule: O=C(O)C1=C[C@H](O)[C@@H](OS(=O)(=O)O)[C@H](O[C@H]2[C@H](O)[C@@H](NS(=O)(=O)O)[C@@H](O[C@H]3[C@H](O)[C@@H](OS(=O)(=O)O)[C@H](O[C@H]4[C@H](O)[C@@H](NS(=O)(=O)O)[C@@H](O[C@H]5[C@H](O)[C@@H](OS(=O)(=O)O)[C@H](O[C@H]6[C@H](O)[C@@H](NS(=O)(=O)O)[C@@H](O[C@H]7[C@H](O)[C@@H](OS(=O)(=O)O)[C@H](O[C@H]8[C@H](O)[C@@H](NS(=O)(=O)O)[C@@H](O[C@H]9[C@H](O)[C@@H](OS(=O)(=O)O)[C@H](O[C@H]%10[C@H](O)[C@@H](NS(=O)(=O)O)[C@@H](O[C@H]%11[C@H](O)[C@@H](OS(=O)(=O)O)[C@H](O[C@H]%12[C@H](O)[C@@H](NS(=O)(=O)O)[C@@H](O[C@H]%13[C@H](O)[C@@H](OS(=O)(=O)O)[C@H](O[C@H]%14[C@H](O)[C@@H](NS(=O)(=O)O)[C@@H](O[C@H]%15[C@H](O)[C@@H](OS(=O)(=O)O)[C@H](O[C@H]%16[C@H](O)[C@@H](NS(=O)(=O)O)C(O)O[C@@H]%16COS(=O)(=O)O)O[C@H]%15C(=O)O)O[C@@H]%14COS(=O)(=O)O)O[C@H]%13C(=O)O)O[C@@H]%12COS(=O)(=O)O)O[C@H]%11C(=O)O)O[C@@H]%10COS(=O)(=O)O)O[C@H]9C(=O)O)O[C@@H]8COS(=O)(=O)O)O[C@H]7C(=O)O)O[C@@H]6COS(=O)(=O)O)O[C@H]5C(=O)O)O[C@@H]4COS(=O)(=O)O)O[C@H]3C(=O)O)O[C@@H]2COS(=O)(=O)O)O1 (stereo partly drawn) [dp16]
Tm (APLP1 E2 [1]): a slight stability increase of APLP1 was induced by chain lengths beyond eight sugar rings

B1: APLP1 E2 domain (amyloid precursor protein-like protein 1, E2 domain) (domain or fragment, human, UniProt P51693 290-495, looked up)
chain: T1 sequence (P51693 290-495)
notes: E2 domain of human amyloid precursor protein-like protein 1 (APLP1), amino acids 290-495; Nonglycosylated fraction used; Two protomers in the asymmetric unit of both crystal forms; also called E2 domain of APLP1; apo APLP1 E2
binding result [3]: binds
